For the assay, the target named is T1, HAO derived from Nitrosomonas europaea (Nitrosomonas europaea, UniProt Q50925).
T1 construct: HAO was purified from ammonia oxidizing bacteria, and stored in a solution state or after drying; made in house; host or cells: Nitrosomonas europaea cells (native enzyme, not recombinant), purified by column chromatography
Put plainly: Determination of 50% inhibitory concentration against HAO by HAO fluorescence measurement (resazurin method). It counts as biochemical. The following applies: n=4, nonlinear fitting. On the procedure: The HAO fluorescence activity measurement was carried out to the compound library for screening by the resazurin method, and the inhibitory effect of these compounds was verified. The 40 kinds of compounds were dissolved in DMSO for molecular biology (available from Wako Pure Chemical Industries, Ltd.) or ultrapure water at a concentration of 100 mM, and further 2-fold dilution series was prepared with 16 series (100 mM, 50 mM, 25 mM, 12.5 mM, 6.25 mM, 3.13 mM, 1.56 mM, 0.78 mM, 0.39 mM, 0.19 mM, 97 μM, 48.8 μM, 24.4 μM, 12.2 μM, 6.1 μM and 3.1 μM) (final concentration becomes 1/200 concentration thereof). […] The plate was inserted into a fluorescence plate reader attached with a reagent injector (infinite M1000 PRO, manufactured by Tecan Co.), and 25 μL of 4 mM hydroxylamine stock solution for 4-fold dilution was added per well, so that an amount of the hydroxylamine to that of the resazurin was made 10-fold amount (molar ratio) in the reaction system. After 2 hours of incubation, fluorescence measurement (excitation wavelength 562 nm: wavelength width 20 nm, measurement wavelength 592 nm: wavelength width 20 nm) was carried out. Candidate compound A was selected as a inhibitor which decreased the fluorescence intensity to 10% or less compared with without-inhibitor condition. […]

T1 sequence (Q50925 25-570): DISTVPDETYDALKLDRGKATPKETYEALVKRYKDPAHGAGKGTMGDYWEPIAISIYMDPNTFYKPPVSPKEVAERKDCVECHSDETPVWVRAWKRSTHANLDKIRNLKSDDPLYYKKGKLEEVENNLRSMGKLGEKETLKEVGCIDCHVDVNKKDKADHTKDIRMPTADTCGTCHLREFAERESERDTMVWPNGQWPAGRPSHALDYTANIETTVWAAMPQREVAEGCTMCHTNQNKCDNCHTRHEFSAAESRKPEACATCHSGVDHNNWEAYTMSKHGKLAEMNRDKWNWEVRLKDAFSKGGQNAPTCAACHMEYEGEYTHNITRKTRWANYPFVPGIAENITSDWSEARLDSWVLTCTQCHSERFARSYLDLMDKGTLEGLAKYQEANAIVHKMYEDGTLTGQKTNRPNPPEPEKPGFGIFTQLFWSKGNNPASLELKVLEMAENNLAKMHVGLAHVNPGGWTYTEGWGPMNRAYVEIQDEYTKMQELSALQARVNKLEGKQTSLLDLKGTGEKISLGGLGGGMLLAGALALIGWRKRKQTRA

The compound `NNc1ccccc1` [phenylhydrazine] yielded a concentration for half-maximal inhibition (IC50) of 276 nM.

The IC50 is the point on the concentration scale where inhibition reaches its midpoint. Higher therefore signals a need for much substance.

These data come from patent US10907191B2, “Method for measuring activity of oxidoreductase” (NATIONAL AGRICULTURE AND FOOD RESEARCH ORGANIZATION, priority 2016, dated 2021).
